Assay results as given in patent US7479507B2, “Anti-inflammatory substituted phenols and elastomeric compositions for oral delivery of drugs” (priority 2003, dated 2009).

Columns and labels:
[1] = system: dogs diagnosed with arthritis or chronic or degenerative joint disease; experiment: Owner-reported mobility of dogs with arthritis or chronic or degenerative joint disease, daily oral dosing, placebo-controlled; format: in vivo, dog
Method: The experiments below were performed on dogs after the informed consent of their owners was obtained. […] The specified compound was administered orally once a day with the dog's meal. […] The owners reported weekly any change in the ability of their dog to stand up, walk, run, climb and descend stairs, get on and off a bed, sofa, or chair, get into and out of a car, their limping and behavior.

carp = settings: 0.3-3 ppm; cited from earlier work
Chinese hamster = settings: cited from earlier work
rats = settings: >2.35 mg/l air aerosol, mostly (~80%) particles smaller than 7 μm; cited from earlier work
rat [2] = settings: cited from earlier work
rat [3] = settings: cited from earlier work; remark: listed apart in the source

CC(C(=O)O)c1ccc2c(c1)[nH]c1ccc(Cl)cc12 (stereo not shown) [Rimadyl®, reference compound]
change in dog's condition ([1]; Example 9, 85 lb Labrador retriever, arthritis of the hips, Rimadyl alone before Compound 1): slightly improved the dog's condition

calcium salt of the monoethyl ester of (((3,5-bis(1,1-dimethylethyl)-4-hydroxyphenyl)methyl) phosphonic acid [Compound 1]
bioconcentration (accumulation) (carp): No bioconcentration (accumulation) was detected | oral LD50 (Chinese hamster): exceeds 2000 mg/kg | deaths after 4 hour inhalation (rats): no deaths | intraperitoneal LD50 (rat [2]): 662 mg/kg | oral LD50 (rat [3]): exceeds 6000 mg/kg | change in dog's condition ([1]; Example 7, 33 lb Kelpie-mix, about 10 mg daily oral capsule, 4th week): condition continued to improve | change in dog's condition ([1]; Example 7, 33 lb Kelpie-mix, about 10 mg daily oral capsule, after 2 weeks): moved smoothly, had less difficulty getting out of the car or off the sofa, ran better and more often, and was more active | change in dog's condition ([1]; Example 7, 33 lb Kelpie-mix, about 10 mg daily oral capsule, after 3 weeks): freely getting off the bed, down from the sofa and out of the car | change in dog's condition ([1]; Example 7, 33 lb Kelpie-mix, arthritis of shoulders and elbow, about 10 mg daily oral capsule, after 1 week): got down the sofa and out of the car more easily | change in dog's condition ([1]; Example 8, 13 lb miniature Poodle, about 10 mg daily oral capsule, after 3 weeks): ran frequently and jumped up on the sofa without hesitation | change in dog's condition ([1]; Example 8, 13 lb miniature Poodle, about 10 mg daily oral capsule, after 4 weeks): climbing and running freely | change in dog's condition ([1]; Example 8, 13 lb miniature Poodle, unknown disease, about 10 mg daily oral capsule, after two weeks): climbed stairs with less hesitation and ran occasionally | change in dog's condition ([1]; Example 9, 85 lb Labrador retriever, about 15 mg Compound 1 daily capsule and Rimadyl, after 1 week): stood up without assistance and limped less | change in dog's condition ([1]; Example 9, 85 lb Labrador retriever, about 15 mg Compound 1 daily capsule and Rimadyl, after 3 weeks): started to move faster, then to run | change in dog's condition ([1]; Example 9, 85 lb Labrador retriever, about 15 mg Compound 1 daily capsule and Rimadyl, after two weeks): moved faster and was not bothered by its hips | change in dog's condition ([1]; Example 9, 85 lb Labrador retriever, about 15 mg Compound 1 daily capsule, Rimadyl discontinued, 4th week): got up and moved rapidly with ease and it's running improved | change in dog's condition ([1]; Example 11, 62 lb Australian cattle dog, about 10 mg Compound 1 daily capsule, after 2 weeks): stood well, limped less, and climbed the 3 stairs to and from the house | change in dog's condition ([1]; Example 11, 62 lb Australian cattle dog, about 10 mg Compound 1 daily capsule, after 3 weeks): trotted and climbed 5 stairs | change in dog's condition ([1]; Example 11, 62 lb Australian cattle dog, about 10 mg Compound 1 daily capsule, after 4 weeks): condition was further improved | change in dog's condition ([1]; Example 11, 62 lb Australian cattle dog, after 5 months untreated, about 10 mg Compound 1 daily capsule, after one week): stood longer, walked, and enjoyed the outdoors | number of dogs for which improvement was evident ([1]; of 5 dogs given Compound 1): 4 dogs
